Results: patent US8252781B2, “1,2-diazetidin-3-one derivatives and drugs containing same” (Kowa Company, Ltd., priority 2008, dated 2012)
Like-named read-outs stand apart in the source and are kept apart here.

Key:
[1] = target: T1, mouse 11β-HSD1 (Mus musculus, UniProt P50172); assay: Enzyme inhibitory activity, mouse 11β-HSD1 (lysate of stably expressing CHO-K1 cells, cortisol by competitive ELISA); assay type: biochemical; details: Table 2; mouse 11β-HSD1, cell lysate, 37° C. for 1 hour; read-out: m HSD1 in vitro assay (IC50 uM)
T1 construct: The obtained PCR products of about 0.9 kbp, 1.2 kbp, and 0.9 kbp were subcloned into an expression vector pcDNA3.1+/Zeo; expressed in transfected cells
Experimental: (§1) 1. Human 11β-HSD1-, Human 11β-HSD2- and Mouse 11β-HSD1-Gene Clonings and Establishment of Stably Expressing Cells
(§2) Human 11β-HSD1-, human 11β-HSD2-, and mouse 11β-HSD1-gene clonings were conducted using as a template a reverse transcription product of human-liver RNA, human-kidney RNA (CELL APPLICATIONS), and mouse-kidney RNA respectively, by means of PCR cloning with reference to nucleotide sequences of Genbank Accession Nos. NM_005525, NM_000196, and NM_008288. The obtained PCR products of about 0.9 kbp, 1.2 kbp, and 0.9 kbp were subcloned into an expression vector pcDNA3.1+/Zeo (Invitrogen).
(§3) Human 11β-HSD1- and human 11β-HSD2-expressing vectors were transfected into human kidney-derived cell line, HEK293 cells, using a transfection reagent, jet PEI (Funakoshi). Mouse 11β-HSD1 was transfected to Chinese hamster ovary-derived cell line, CHO-K1 cells. Selection was conducted with 200-400 μg/mL of zeocine (Invitrogen) to provide stably expressing-cell clones. The stably expressing cells were suspended in buffer solution A (20 mmol/L Tris-HCl, pH 7.4, 250 mmol/L sucrose, 1 mmol/L EGTA, 1 mmol/L EDTA, 1 mmol/L MgCl2), sonicated, and then stored at −80° C.
(§4) 2. Assay of Enzyme Inhibitory Activity
(§5) An enzymatic reaction was conducted using a polystyrene 96-well plate. Each well was added with 1 μL of a test agent dissolved in DMSO and then diluted (0.003 to 3 mmol/L), and further added with 10 μL of cell lysate diluted to a concentration of 0.1 mg/mL to 0.4 mg/mL. Next, 90 μL of buffer solution A containing substrate (100 nmol/L cortisone or cortisol) and coenzyme (400 μmol/L NADPH or NAD+) was added and the mixture was incubated at 37° C. for 1 hour. The enzymatic reaction was stopped by treating at 95° C. for 3 minutes. Cortisol that was present in the reaction solution was determined by a competitive ELISA shown below.
(§6) Anti-rabbit IgG antibody (Chemi-con) diluted to 2 μg/mL with carbonate buffer solution (pH 9.6) was added in 100 μL each to a 96-well immuno plate (Nunc) and immobilized by an incubation at 4° C. overnight. 50 μL of enzymatic reaction solution was put onto the plates, and further, anti-cortisol antibody (Cosmo Bio) and HRP-labeled cortisol (Cosmo Bio), diluted with buffer solution B (25 mmol/L Tris-HCl pH 7.4, 137 mmol/L NaCl, 2.68 mmol/L KCl), were added in 50 μL respectively and incubated at 4° C. overnight. After washed three times with buffer solution B containing 0.05% Tween 20, the plates were allowed to develop color by adding 100 μL of color reagent, TMB (Moss). The color reaction was stopped by 25 μL of 1 mol/L sulfuric acid and the absorbance was determined at 450 nm with a microplate reader (Molecular Device, VersaMax).
(§7) The values of human 11β-HSD1, human 11β-HSD2, and mouse 11β-HSD1 activities were subtracted from 100, and the resultant values were regarded as the respective 11β-HSD inhibition rates of example compounds. […] The comparison of human 11β-HSD1 and human 11β-HSD2 inhibiting activities is shown in Table 1, and the comparison of human 11β-HSD1 and mouse 11β-HSD1 inhibiting activities is shown in Table 2.

[2] = target: T2, human 11β-HSD1 (Homo sapiens, UniProt P28845); assay: Enzyme inhibitory activity, human 11β-HSD1 (lysate of stably expressing HEK293 cells, cortisol by competitive ELISA); assay type: biochemical; details: human 11β-HSD1, cell lysate, 37° C. for 1 hour, read-out: h HSD1 in vitro assay (IC50 uM)
T2 construct: The obtained PCR products of about 0.9 kbp, 1.2 kbp, and 0.9 kbp were subcloned into an expression vector pcDNA3.1+/Zeo; expressed in transfected cells
Experimental: as §1, §2, §3, §4, §5, §6, §7

T2 sequence (P28845 whole entry): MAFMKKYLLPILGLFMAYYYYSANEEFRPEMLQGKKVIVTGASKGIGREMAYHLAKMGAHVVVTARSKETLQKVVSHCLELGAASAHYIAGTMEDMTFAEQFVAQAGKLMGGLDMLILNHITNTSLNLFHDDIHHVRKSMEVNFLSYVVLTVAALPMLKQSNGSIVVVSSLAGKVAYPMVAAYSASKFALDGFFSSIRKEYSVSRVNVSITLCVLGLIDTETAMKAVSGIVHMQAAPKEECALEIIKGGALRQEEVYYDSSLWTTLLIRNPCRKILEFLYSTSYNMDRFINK
T1 sequence (P50172 whole entry): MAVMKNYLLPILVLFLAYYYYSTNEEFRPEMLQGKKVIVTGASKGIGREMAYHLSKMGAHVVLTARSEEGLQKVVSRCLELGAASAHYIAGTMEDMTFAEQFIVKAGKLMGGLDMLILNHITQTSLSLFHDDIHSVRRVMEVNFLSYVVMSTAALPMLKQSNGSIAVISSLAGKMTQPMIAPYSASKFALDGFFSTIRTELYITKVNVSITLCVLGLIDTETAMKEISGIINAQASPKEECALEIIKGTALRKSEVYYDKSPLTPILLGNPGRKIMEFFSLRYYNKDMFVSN

| IC50 [1] | IC50 ([2]; Table 2) | IC50 ([2]; Table 1) | SMILES |
| --- | --- | --- | --- |
| 0.11 µM | 0.54 µM | – | Cc1ccc(C(=O)N2N(C3C4CC5CC(C4)CC3C5)C(=O)C2(C)C)cc1 (centres unmarked) [Example 114, 4,4-dimethyl-1-[(4-methylphenyl)carbonyl]-2-(adamantan-2-yl)-1,2-diazetidin-3-one] |
| 0.025 µM | 0.058 µM | – | CC1(C)C(=O)N(C2C3CC4CC(C3)CC2C4)N1Cc1ccc(Cl)cc1 (centres unmarked) [Example 13, 1-(4-chlorobenzyl)-4,4-dimethyl-2-(adamantan-2-yl)-1,2-diazetidin-3-one] |
| 0.2 µM | 0.75 µM | – | Cc1cccc(C(=O)N2N(C3C4CC5CC(C4)CC3C5)C(=O)C2(C)C)c1 (centres unmarked) [Example 109, 4,4-dimethyl-1-[(3-methylphenyl)carbonyl]-2-(adamantan-2-yl)-1,2-diazetidin-3-one] |
| 0.06 µM | 0.35 µM | – | CC1(C)C(=O)N(C2C3CC4CC(C3)CC2C4)N1Cc1ccc(Br)cc1 (centres unmarked) [Example 53, 1-(4-bromobenzyl)-4,4-dimethyl-2-(adamantan-2-yl)-1,2-diazetidin-3-one] |
| 0.64 µM | 0.15 µM | – | CC1(C)C(=O)N(C2CC3CCC2C3)N1Cc1ccccc1Cl (centres unmarked) [Example 78, 2-(bicyclo[2.2.1]heptan-2-yl)-1-(2-chlorobenzyl)-4,4-dimethyl-1,2-diazetidin-3-one] |
| 0.15 µM | 0.038 µM | – | CC1(C)C(=O)N(C2CCCCCCC2)N1Cc1cc(Cl)ccc1Cl [Example 75, 2-cyclooctyl-1-(2,5-dichlorobenzyl)-4,4-dimethyl-1,2-diazetidin-3-one] |
| 0.2 µM | – | 0.1 µM | COc1ccccc1N1N(C2C3CC4CC(C3)CC2C4)C(=O)C1(C)C (centres unmarked) [Example 205, 1-(2-methoxyphenyl)-4,4-dimethyl-2-(adamantan-2-yl)-1,2-diazetidin-3-one] |
| 0.069 µM | 0.067 µM | – | Cc1ccc(CN2N(C3C4CC5CC(C4)CC3C5)C(=O)C2(C)C)c(C)c1 (centres unmarked) [Example 55, 1-(2,4-dimethylbenzyl)-4,4-dimethyl-2-(adamantan-2-yl)-1,2-diazetidin-3-one] |
| 0.35 µM | 0.13 µM | – | CC1(C)C(=O)N(C2C3CC4CC2CC(C(N)=O)(C4)C3)N1Cc1ccccc1Cl (centres unmarked) [Example 95, 4-[2-(2-chlorobenzyl)-3,3-dimethyl-4-oxo-1,2-diazetidin-1-yl]adamantane-1-carboxamide] |
| 0.03 µM | 0.49 µM | – | Cc1ccccc1N1N(C2C3CC4CC(C3)CC2C4)C(=O)C1(C)C (centres unmarked) [Example 192, 4,4-dimethyl-1-(2-methylphenyl)-2-(adamantan-2-yl)-1,2-diazetidin-3-one] |
| 0.061 µM | 0.026 µM | – | Cc1c(F)cccc1CN1N(C2C3CC4CC(C3)CC2C4)C(=O)C1(C)C (centres unmarked) [Example 58, 1-(3-fluoro-2-methylbenzyl)-4,4-dimethyl-2-(adamantan-2-yl)-1,2-diazetidin-3-one] |
| 0.22 µM | 0.8 µM | – | CC1(C)C(=O)N(C2C3CC4CC(C3)CC2C4)N1C(=O)c1ccccc1 (centres unmarked) [Example 96, 4,4-dimethyl-1-(phenylcarbonyl)-2-(adamantan-2-yl)-1,2-diazetidin-3-one] |
| 0.27 µM | 0.47 µM | – | CC1(C)C(=O)N(C2C3CC4CC(C3)CC2C4)N1Cc1cccc(F)c1F (centres unmarked) [Example 19, 1-(2,3-difluorobenzyl)-4,4-dimethyl-2-(adamantan-2-yl)-1,2-diazetidin-3-one] |
| 0.088 µM | 0.84 µM | – | Cc1ccc(CN2N(C3C4CC5CC(C4)CC3C5)C(=O)C2(C)C)cc1 (centres unmarked) [Example 14, 4,4-dimethyl-1-(4-methylbenzyl)-2-(adamantan-2-yl)-1,2-diazetidin-3-one] |
| 0.37 µM | 0.6 µM | – | CC1(C)C(=O)N(C2C3CC4CC(C3)CC2C4)N1Cc1cccc([N+](=O)[O-])c1 (centres unmarked) [Example 29, 4,4-dimethyl-1-(3-nitrobenzyl)-2-(adamantan-2-yl)-1,2-diazetidin-3-one] |
| 0.094 µM | 0.03 µM | – | CC1(C)C(=O)N(C2C3CC4CC(C3)CC2C4)N1Cc1ccccc1Cl (centres unmarked) [Example 27, 1-(2-chlorobenzyl)-4,4-dimethyl-2-(adamantan-2-yl)-1,2-diazetidin-3-one] |
